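Each compound was tested at five concentrations against cells in 96-well plates for 48 hours. GI50 is the concentration that inhibits growth by half.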 Calls of active or inactive are those of the source. Cut-off read from the data, not from the text of the source: active = GI50 up to about 1.1 µM and inactive = higher.
Assays:
Assay in all cases: growth of human tumour cells (NCI), 48 h
COLO 205 = test system: COLO 205
EKVX = test system: EKVX
HT-29 = test system: HT-29
IGROV-1 = test system: IGROV-1
K562 = test system: K562
MOLT-4 = test system: MOLT-4
Malme-3M = test system: Malme-3M
NCI-H226 = test system: NCI-H226
NCI-H23 = test system: NCI-H23
OVCAR-3 = test system: OVCAR-3
RPMI-8226 = test system: RPMI-8226
SF-268 = test system: SF-268
SF-295 = test system: SF-295
SK-MEL-5 = test system: SK-MEL-5
SNB-19 = test system: SNB-19
SR = test system: SR
SW-620 = test system: SW-620

Row | SMILES | GI50 (COLO 205) | GI50 (EKVX) | GI50 (HT-29) | GI50 (IGROV-1) | GI50 (K562) | GI50 (MOLT-4) | GI50 (Malme-3M) | GI50 (NCI-H226) | GI50 (NCI-H23) | GI50 (OVCAR-3) | GI50 (RPMI-8226) | GI50 (SF-268) | GI50 (SF-295) | GI50 (SK-MEL-5) | GI50 (SNB-19) | GI50 (SR) | GI50 (SW-620)
1 | c1coc(CNc2[nH]cnc3nncc2-3)c1 | > 100 µM (inactive) | > 100 µM (inactive) | > 100 µM (inactive) | > 100 µM (inactive) | 57.8 µM (inactive) | > 100 µM (inactive) | > 100 µM (inactive) | > 100 µM (inactive) | 79.6 µM (inactive) | > 100 µM (inactive) | 73.8 µM (inactive) | > 100 µM (inactive) | > 100 µM (inactive) | > 100 µM (inactive) | > 100 µM (inactive) | 57.1 µM (inactive) | > 100 µM (inactive)
2 | CC1OC(n2cc(F)c(=O)[nH]c2=O)CCC1=O (stereo not drawn) | 79.4 µM (inactive) | – | 91 µM (inactive) | > 100 µM (inactive) | > 100 µM (inactive) | > 100 µM (inactive) | > 100 µM (inactive) | > 100 µM (inactive) | – | – | 49.7 µM (inactive) | > 100 µM (inactive) | > 100 µM (inactive) | > 100 µM (inactive) | > 100 µM (inactive) | > 100 µM (inactive) | > 100 µM (inactive)
3 | COc1cccc(OC)c1/C=N\N1C(=O)c2ccccc2C1=O | – | > 100 µM (inactive) | 35.5 µM (inactive) | 84.3 µM (inactive) | 39.1 µM (inactive) | 40.6 µM (inactive) | 60 µM (inactive) | > 100 µM (inactive) | 38.5 µM (inactive) | 19.9 µM (inactive) | 28.2 µM (inactive) | 37.8 µM (inactive) | 92.3 µM (inactive) | 52.1 µM (inactive) | > 100 µM (inactive) | 32.8 µM (inactive) | 41.6 µM (inactive)
4 | CCn1c2ccccc2c(=O)c2c(OC)ccc(OC)c21 | 55.7 µM (inactive) | > 66.5 µM (inactive) | 64.3 µM (inactive) | 46.9 µM (inactive) | 37.2 µM (inactive) | 42.5 µM (inactive) | 68.5 µM (inactive) | 32.2 µM (inactive) | > 83.8 µM (inactive) | 34 µM (inactive) | 35.5 µM (inactive) | 83.9 µM (inactive) | 53.8 µM (inactive) | – | 49.9 µM (inactive) | 34.9 µM (inactive) | 32.8 µM (inactive)
5 | CC#CC1C(OC(=O)c2ccccc2)CCCC1(CI)N=[N+]=[N-] (stereo not drawn) | > 100 µM (inactive) | 55.1 µM (inactive) | 40.6 µM (inactive) | > 100 µM (inactive) | 28.4 µM (inactive) | 13.6 µM (inactive) | > 100 µM (inactive) | 84.3 µM (inactive) | 28.3 µM (inactive) | > 100 µM (inactive) | 18.5 µM (inactive) | 67 µM (inactive) | 87.5 µM (inactive) | 19.5 µM (inactive) | – | 17.5 µM (inactive) | > 100 µM (inactive)
6 | CC1(C)COC2(OC1)C1=NS(=O)(=O)CC13CCC2C3(C)C (stereo not drawn) | > 100 µM (inactive) | > 100 µM (inactive) | > 100 µM (inactive) | > 100 µM (inactive) | > 100 µM (inactive) | > 100 µM (inactive) | > 100 µM (inactive) | > 100 µM (inactive) | > 100 µM (inactive) | > 100 µM (inactive) | > 100 µM (inactive) | > 100 µM (inactive) | > 100 µM (inactive) | > 100 µM (inactive) | > 100 µM (inactive) | > 100 µM (inactive) | > 100 µM (inactive)
7 | CCCCCCCCCCCCNC1(C)CNCCCNCCNCCCNC1 | 1.74 µM (inactive) | 3.56 µM (inactive) | 1.58 µM (inactive) | 1.07 µM (active) | 1.89 µM (inactive) | 1.43 µM (inactive) | 2.01 µM (inactive) | 1.51 µM (inactive) | 1.71 µM (inactive) | 1.82 µM (inactive) | 1.63 µM (inactive) | 1.34 µM (inactive) | 1.51 µM (inactive) | 1.68 µM (inactive) | 1.76 µM (inactive) | 1.61 µM (inactive) | 1.79 µM (inactive)
